Data published in publication PMC9844320, “Novel CaLB-like Lipase Found Using ProspectBIO, a Software for Genome-Based Bioprospection” (BioTech, 2023).

Tests used:
rLipB = biological target: T1, rLipB (Moesziomyces antarcticus, UniProt P41365); assay: spectrofluorimetric release of 4-methylumbelliferone by lyophilized culture supernatant; type: biochemical; settings: pH 7, 0.05 M phosphate, 45 °C; crude lyophilized supernatant
T1 construct: recombinant CaLB secreted constitutively (PGK promoter) by Pichia pastoris; lyophilized culture supernatant, gift of LaBiM, not purified
T1 sequence (P41365 26-342): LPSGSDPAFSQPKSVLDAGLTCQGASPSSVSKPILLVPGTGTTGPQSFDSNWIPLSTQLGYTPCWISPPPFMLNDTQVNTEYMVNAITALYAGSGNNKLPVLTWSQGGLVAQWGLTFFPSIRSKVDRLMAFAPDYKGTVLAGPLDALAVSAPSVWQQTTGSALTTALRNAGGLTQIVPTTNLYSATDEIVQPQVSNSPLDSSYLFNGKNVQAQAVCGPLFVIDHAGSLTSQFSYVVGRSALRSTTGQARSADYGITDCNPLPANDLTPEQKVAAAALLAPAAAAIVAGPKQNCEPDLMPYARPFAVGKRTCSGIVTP

UhL [1] = biological target: T2, UhL (Ustilago hordei, UniProt I2G5F8); assay: spectrofluorimetric release of 4-methylumbelliferone by culture supernatant; type: biochemical; settings: pH 7, 0.05 M phosphate, 45 °C; crude culture supernatant
T2 construct: gene UHOR_02134; codon-optimized gene in pPICZalphaA (alpha-factor secretion), C-terminal 6xHis, 330 residues expressed, 35 kDa predicted / 36 kDa by Western blot, N-glycosylated; Pichia pastoris X-33 culture supernatant, not purified
T2 sequence (I2G5F8 20-343): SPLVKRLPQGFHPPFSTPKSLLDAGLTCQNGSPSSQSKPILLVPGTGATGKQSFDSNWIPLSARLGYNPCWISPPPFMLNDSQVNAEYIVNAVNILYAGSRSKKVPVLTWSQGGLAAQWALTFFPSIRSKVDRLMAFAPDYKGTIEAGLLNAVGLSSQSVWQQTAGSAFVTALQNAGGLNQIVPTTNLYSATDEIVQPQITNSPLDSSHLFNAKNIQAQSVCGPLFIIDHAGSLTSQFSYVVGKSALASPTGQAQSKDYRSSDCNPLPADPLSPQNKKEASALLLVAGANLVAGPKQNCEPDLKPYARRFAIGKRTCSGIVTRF

UhL [2] = biological target: T2, UhL; assay: hydrolysis halo on tributyrin agar plate of expressing clones (wild-type X-33 as control); type: cell-based; settings: BMMY agar, pH 6.0, 30 °C, 4 days, methanol induction

| Structure (SMILES) | relative activity (rLipB) | relative activity (UhL [1]) | hydrolysis halo on tributyrin agar plate of expressing clones (wild-type X-33 as) (UhL [2]) |
| --- | --- | --- | --- |
| CCCC(=O)Oc1ccc2c(C)cc(=O)oc2c1 [C4, MUF-butyrate] | rLipB activity was increased, as the ester substrate chain length increased up to C7 |  |  |
| CCCCCCC(=O)Oc1ccc2c(C)cc(=O)oc2c1 [MUF-7, MUF-heptanoate] | Both enzymes showed the highest activity with MUF-heptanoate (MUF-7) | Both enzymes showed the highest activity with MUF-heptanoate (MUF-7) |  |
| CCCC(=O)OCC(COC(=O)CCC)OC(=O)CCC [tributyrin] |  |  | expressed in Pichia pastoris, showing activity against tributyrin triglyceride |
